# Experiments:
# Format in all cases: cell-based
# MCF7 [1] = assay: SRB cytotoxicity assay, MCF7; conditions: for IC50: MCF7, SRB, mean ± SEM
# Text: (§1) Eight different cancer cell lines were acquired from the Radiobiology and Experimental Radio Oncology lab, University Medical Center, Hamburg University, Hamburg, Germany. MCF7, MDA-MB-231 (breast cancer), and A549 (lung cancer) cells were maintained in RPMI medium while HCT116 (colon cancer), HepG2 (liver cancer), U87, U373 (glioblastoma), and HeLa (cervical cancer) were maintained in DMEM supplemented with 10% FBS and 1% penicillin/streptomycin (Sigma Aldrich, Missouri, USA). Normal human fibroblast (F180) cells were maintained in DMEM supplemented with 15% FBS. Normal human mammary epithelial cell line (HME1) were maintained in DMEM/F-12 medium supplemented with 10% FBS. All incubations were done at 37° C. in a humidified atmosphere of 5% CO2. All cell lines were authenticated by short tandem repeat (STR) profiling. The CDK4 knockout cells (provided by Dr. Samrein Ahmed, University of Sharjah, United Arab Emirates) were generated by CRISPR-CAS9 technology and were maintained in DMEM supplemented with 10% FBS.
# (§2) The cytotoxic effects of HH32 and HH33 compounds were evaluated at various concentrations ranging from 0.0001 to 100 μM by sulphrhodamine-B (SRB) assay as described previously. The anti-proliferative activity was expressed as growth inhibitory concentration (IC50) values, which were calculated by the sigmoidal dose-response curve fitting method using Graph pad prism 6 software (GraphPad Software, San Diego, CA, USA).
# HeLa = assay: SRB cytotoxicity assay, HeLa
# Text: as §1, §2
# HepG2 = assay: SRB cytotoxicity assay, HepG2
# Text: as §1, §2
# U373 = assay: SRB cytotoxicity assay, U373
# Text: as §1, §2
# [2] = tested on: MCF7, HCT-116, HeLa and A549 cells; assay: Annexin V/PI apoptosis analysis; conditions: for early apoptotic cell population (Annexin V+/PI-): 24 and 48 hours
# Method: The cells were collected at 12, 24 and 48 hours after treatment with […] of HH32 and HH33 compounds. The detection of early and late apoptotic cell death was done using FITC Annexin V Apoptosis Detection Kit (Becton Dickenson, California, USA) according to the manufacturer's protocol. The data were analyzed by BD Accuri C6 flow cytometer (Becton Dickenson, New Jersey, USA).
# [3] = tested on: MCF7, HCT116, HeLa and A549 cells; assay: Cell cycle analysis by flow cytometry, four cell lines; conditions: for G1 and S phases arrest: four cell lines
# Method: (§3) The effect of the HH32 and HH33 compounds on the distribution of cell cycle at different time points (2, 4, 8, 24, 48, and 72 hours) was analyzed using flow cytometry. Briefly, the cells were harvested and fixed in 70% ethanol for 24 hours at −20° C. The fixed cells were treated with RNAase […] (Sigma Aldrich, Missouri, USA) and stained with propidium iodide […] (Sigma Aldrich, Missouri, USA). The data were acquired using BD Accuri C6 flow cytometer (Becton Dickenson, San Jose, CA, USA) and analysis was done using Flow Jo software (Tree Star, Inc, Ashland, OR, USA).
# MCF7 cells [4] = assay: Transcriptomic analysis of HH33-treated MCF7 cells
# Method: RNA extraction was carried out followed by cDNA synthesis using SuperScript VILO cDNA Synthesis kit (Invitrogen, Waltham, MA, USA) and amplification using Ion AmpliSeq gene expression core panel primers. The prepared library was purified using Agencourt AMPure XP beads (Beckman Coulter, California, USA) and quantified using Ion Library TaqMan™ Quantitation Kit (Applied Biosystems, Waltham, MA, USA). The libraries were further diluted to […] and pooled equally with four individual samples per pool. The pooled libraries were amplified using emulsion PCR on Ion OneTouch™ 2 instrument (OT2) and the enrichment was performed on Ion OneTouch™ ES following the manufacturer's instruction. Thus, prepared template libraries were then sequenced with Ion S5 XL Semiconductor sequencer using the Ion 540™ Chip. RNA-seq data were analyzed using Ion Torrent Software Suite version 5.4 and the alignment was carried out using modifications of the Torrent Mapping Alignment Program (TMAP) optimizing it for aligning the raw sequencing reads against reference sequence derived from hgl9 (GRCh37) assembly. The specificity and sensitivity was maintained by implementing a two-stage mapping approach by employing BWA-short, BWA-long, SSAHA [31], Super-maximal Exact Matching and Smith Waterman algorithm for optimal mapping. Raw read counts of the targeted genes were performed using Samtools (Samtools view —c -F 4-L bed_file bam_file) and the number of expressed transcripts was confirmed after Fragments Per Kilobase Million (FPKM) normalisation. Differentially expressed gene (DEG) analysis was performed using a script written in R programming language (version 3.6.3) with function calls to DESeq2 package from Bioconductor library sets. Raw read counts from RNASeq were normalized using quantile normalization. All counts ranked “0” were excluded. Differentially expressed genes between the two set of cell lines [HH33-treated (n=3), and untreated (n=3)] were assessed using 2 tailed t-test. Differentially expressed genes with p-value of <0.05, adjusted p-value<0.8 and 5-fold difference were included for pathway analysis using Metascape.
# HCT116 = assay: Cell cycle analysis by flow cytometry, HCT116; conditions: 1 μM, peak at 8 hours, Control 27.4%
# Method: as §3
# HeLa cells = assay: Cell cycle analysis by flow cytometry, HeLa; conditions: 1 μM, peak at 24 hours, Control 36.9%
# Method: as §3
# MCF7 [5] = assay: Cell cycle analysis by flow cytometry, MCF7; conditions: 1 μM, up to 72 hours, Control 11.3%
# Method: as §3
# MCF7 cells [6] = assay: Transcriptomic analysis of HH33-treated MCF7 cells; conditions: confirmed by quantitative RT-PCR
# [7] = H33-treated vs DMSO-treated, DNA repair pathways
smiles,measurement,setting,value
"COC(=O)c1cc(NC2=NC(=O)C(=Cc3ccc(C)cc3)S2)ccc1OC(C)=O [HH32, Methyl 2-acetoxy-5-[(5-(4-methylbenzylidene)-4 (H)-oxo-1,3-thiazol-2-yl)-amino]benzoate]",Selectivity index,MCF7 [1]; F180 versus MCF7,3.88
same,Selectivity index,MCF7 [1]; HME1 versus MCF7,7.8
same,IC50,MCF7 [1],3440 ± 320 nM
same,Selectivity index,HeLa; F180 versus HeLa,22.2
same,Selectivity index,HeLa; HME1 versus HeLa,44.65
same,IC50,"HeLa; HeLa, SRB, mean ± SEM",600 ± 470 nM
same,Selectivity index,HepG2; F180 versus HepG2,5.36
same,Selectivity index,HepG2; HME1 versus HepG2,10.8
same,IC50,"HepG2; HepG2, SRB, mean ± SEM",2490 ± 110 nM
same,Selectivity index,U373; F180 versus U373,0.45
same,Selectivity index,U373; HME1 versus U373,0.9
same,IC50,"U373; U373, SRB, mean ± SEM",29380 ± 80 nM
same,late apoptotic/dead cells (Annexin V+/PI+),[2]; HCT-116 cells,elevated
same,early apoptotic cell population (Annexin V+/PI-),[2]; four cell lines,no sign of early apoptosis induction
same,G1 and S phases arrest,[3],no signs
"COC(=O)c1cc(NC2=NC(=O)C(=Cc3ccc(N(C)C)cc3)S2)ccc1OC(C)=O [HH33, Methyl 2-acetoxy-5-[(5-(4-dimethylaminobenzylidene)-4 (H)-oxo-1,3-thiazol-2-yl)-amino]benzoate]",Selectivity index,MCF7 [1]; F180 versus MCF7,4.89
same,Selectivity index,MCF7 [1]; HME1 versus MCF7,11.4
same,IC50,MCF7 [1],810 ± 340 nM
same,Selectivity index,HeLa; F180 versus HeLa,16.3
same,Selectivity index,HeLa; HME1 versus HeLa,38.5
same,activity compared with doxorubicin,HeLa; HeLa cells,superior activity than doxorubicin
same,Selectivity index,HepG2; F180 versus HepG2,10.3
same,Selectivity index,HepG2; HME1 versus HepG2,24
same,Selectivity index,U373; F180 versus U373,0.17
same,Selectivity index,U373; HME1 versus U373,0.4
same,Fold change (H_Mean/D_Mean) CDC45,MCF7 cells [4]; [7],0.1426
same,Fold change (H_Mean/D_Mean) CHAF1B,MCF7 cells [4]; [7],0.5251
same,Fold change (H_Mean/D_Mean) DDX11,MCF7 cells [4]; [7],0.4961
same,Fold change (H_Mean/D_Mean) ESCO2,MCF7 cells [4]; [7],0.2719
same,Fold change (H_Mean/D_Mean) GTF2H2C,MCF7 cells [4]; [7],0.2907
same,Fold change (H_Mean/D_Mean) MCM6,MCF7 cells [4]; [7],0.4195
same,Fold change (H_Mean/D_Mean) MMS22L,MCF7 cells [4]; [7],0.2144
same,Fold change (H_Mean/D_Mean) PIAS4,MCF7 cells [4]; [7],0.6961
same,Fold change (H_Mean/D_Mean) POLA1,MCF7 cells [4]; [7],0.196
same,Fold change (H_Mean/D_Mean) RAD17,MCF7 cells [4]; [7],0.3003
same,Fold change (H_Mean/D_Mean) RAD51,MCF7 cells [4]; [7],0.2505
same,Fold change (H_Mean/D_Mean) RAD51AP1,MCF7 cells [4]; [7],0.2877
same,Fold change (H_Mean/D_Mean) RECQL,MCF7 cells [4]; [7],0.212
same,Fold change (H_Mean/D_Mean) RIF1,MCF7 cells [4]; [7],0.3166
same,Fold change (H_Mean/D_Mean) RNF111,MCF7 cells [4]; [7],0.5331
same,Fold change (H_Mean/D_Mean) RNF168,MCF7 cells [4]; [7],0.2605
same,Fold change (H_Mean/D_Mean) TRIP13,MCF7 cells [4]; [7],0.4436
same,Fold change (H_Mean/D_Mean) UBE2N,MCF7 cells [4]; [7],0.3688
same,Fold change (H_Mean/D_Mean) UBE2W,MCF7 cells [4]; [7],0.224
same,Fold change (H_Mean/D_Mean) ZSWIM7,MCF7 cells [4]; [7],0.3144
same,pathways related to DNA repair and cell cycle progression,MCF7 cells [4]; hypergeometric test,down-regulation
same,G2/M phase accumulation,HCT116,77.4%
same,G2/M phase accumulation,HeLa cells,93.9%
same,G2/M cell cycle arrest,MCF7 [5],57.7%
same,late apoptotic/dead cells (Annexin V+/PI+),[2]; HCT-116 cells,elevated
same,early apoptotic cell population (Annexin V+/PI-),[2]; four cell lines,increased
same,late apoptotic/dead cells (Annexin V+/PI+),"[2]; four cell lines, with increasing concentration",increased
same,percentage of cancer cells arrested at the G2/M border,[3],up to 90%
same,G1 and S phases arrest,[3],no signs
same,"six shared genes (ATAD2, CDCA3, FAMIIIB, CDKN3, HISTIH2AH, MIS18BP1)",MCF7 cells [6],maximally downregulated

# — patent publication US20250002467A1, “DESIGN, SYNTHESIS AND MECHANISMS OF ANTICANCER ACTIVITY OF NEW ACETYLATED 5-AMINOSALICYLATE-THIAZOLINONE HYBRID DERIVATIVES” (University of Sharjah, priority 2023, published 2025)
